Measurements taken from patent publication US8168667B2 (Galapagos NV, priority 2006, dated 2012).
Where two headings read alike, the source gives them in different places.

Key:
[1] = test system: castrated immature young rats; assay: Adapted model of Hershberger's test (levator ani and ventral prostate weight); type: in vivo, Sprague Dawley rats; conditions: Rattus norvegicus, po, 96 h
Procedure: The selective modulating activity of the androgen receptor was tested in a model of castrated immature young rats. This model, which is widely recognised for evaluating the anabolic effects of androgen compounds on the muscles and on the genitalia, has been described by Hershberger et al. 1953 Proc. Soc. Expt. Biol. Med. 83:175.
The method is based on the measurement of the well-known effects of androgens on the growth of the muscles and the accessory male sex organs in animals, and also in men. The consequences of castration appear in the form of a rapid involution and atrophy of the prostate and the seminal vesicles and of the anus-lifting muscle (levator ani). This effect may be completely compensated by an exogeneous administration of androgen, in particular of testosterone. The model is thus used to determine the capacity of the tested molecules to maintain the weight of the accessory sex and muscle organs in immature castrated rats, and therefore their androgenic efficacy.
Immature young Sprague Dawley rats (4 to 5 weeks old) weighing approximately 140-160 g (Charles River, Les Oncins, FRANCE) were distributed randomly in various groups and were kept in an environment at 22±2° C. with an alternating day/night cycle of 12 hours and ad libitum access to food and drink.
On day 0, that is, seven days before commencement of the first treatment, the rats were weighed individually then anaesthetised with an intraperitoneal dose of Ketamine/xylazine (85/15 mg/kg, approximately 2 ml/kg). Each animal was then placed on a sterile field and the abdomen and the scrotum were disinfected with Betadine and 70% alcohol. In the case of the orchidectomised control animals (ORX), the testicles were removed via an incision in the middle of the scrotum. A sterile suture was then made to ligature the supra-testicular portion of the tissue prior to surgical section of each testicle. The groups of animals to be treated by the tested compounds were operated on in an identical manner. In the case of the intact control animals (SHAM), the testicles were similarly extracted and reintroduced delicately to their original location. The site of surgical intervention was then sutured using sterile suture thread, and the site was disinfected again by application of Betadine. Each animal was then kept under a sterile pad until it awoke, before being returned to its cage. The animals were kept in an environment at 22±2° C. with an alternating day/night cycle of 12 hours and ad libitum access to food and drink. The animals were treated with the molecules to be tested from post-surgery day 7 and until day 10 preceding sacrifice (day 11).
The rats were split into groups and treated daily from day 7 to day 10 under the conditions defined below: • 1. SHAM control group: Vehicle (0.5% aqueous methyl cellulose) administered per os. • 2. ORX control group: Vehicle (0.5% aqueous methyl cellulose) administered per os. • 3. Treated ORX group: The tested compounds were administered individually per os in suspension in the vehicle described above, in a dose of 30 mg/kg.
After treatment for 4 successive days, the animals were decapitated using a guillotine. The levator ani and the ventral prostate were removed and weighed individually. For comparing inter-experimental data, the weight of each organ was standardised and expressed in milligrammes per 100 g of the weight of the animal (W). For each organ, the average of the standardised weights of the ORX control group was fixed by definition at 0% and the average of the standardised weights of the SHAM control group was fixed by definition at 100%. The efficacy of each product was expressed as a percentage and calculated using the following formula: (Wtreated−WORX)/(WSHAM−WORX)×100 A subsequent ANOVA test was used for statistical analysis to identify the differences between groups.

[2] = ORX rats, 30 mg/kg per os, 4 successive days, ORX = 0%, SHAM = 100%, read-out: anabolic protection efficacy with regard to levator ani
[3] = ORX rats, 30 mg/kg per os, 4 successive days, ventral prostate, ORX = 0%, SHAM = 100%, read-out: androgenic efficacy with regard to the prostate
[4] = read-out: anabolic protection efficacy with regard to levator ani
[5] = read-out: androgenic efficacy with regard to the prostate

| SMILES | inhibition in vivo at 30 mg/kg [1, 2] [%] | inhibition in vivo at 30 mg/kg [1, 3] [%] | melting point [°C] | inhibition in vivo at 30 mg/kg [1, 4] [%] | inhibition in vivo at 30 mg/kg [1, 5] [%] |
| --- | --- | --- | --- | --- | --- |
| CN1C(=O)N(c2ccc(Cl)c(Cl)c2)C(=O)C1c1ccc(O)cc1 (centres unmarked) [Example 1, 1-(3,4-dichlorophenyl)-4-(4-hydroxyphenyl)-3-methylimidazolidine-2,5-dione] | 50 to 140 | 5 to 70 | 200 |  |  |
| C=CCN1C(=O)N(c2ccc(Cl)c(Cl)c2)C(=O)C1c1ccc(O)cc1 (centres unmarked) [Example 3, 1-(3,4-dichlorophenyl)-4-(4-hydroxyphenyl)-3-(2-propenyl)imidazolidine-2,5-dione] | 50 to 140 | 5 to 70 |  |  |  |
| C#CCN1C(=O)N(c2ccc(C#N)c(C(F)(F)F)c2)C(=O)C1c1ccc(O)cc1 (centres unmarked) [Example 4, 4-[2,5-dioxo-4-(4-hydroxyphenyl)-3-(2-propynyl)imidazolidin-1-yl]-2-trifluoromethylbenzonitrile] |  |  | 195 | 50 to 140 | 5 to 70 |
| CN1C(=O)N(c2ccc(C#N)c(C(F)(F)F)c2)C(=O)C1(C)c1ccc(O)cc1 (centres unmarked) [Example 5, 4-[3,4-dimethyl-2,5-dioxo-4-(4-hydroxyphenyl)imidazolidin-1-yl]-2-trifluoromethylbenzonitrile] |  |  |  | 50 to 140 | 5 to 70 |
| C#CCN1C(=O)N(c2ccc(C#N)c(C(F)(F)F)c2)C(=O)C1(C)c1ccc(O)cc1 (centres unmarked) [Example 6, 4-[2,5-dioxo-4-(4-hydroxyphenyl)-4-methyl-3-(2-propynyl)imidazolidin-1-yl]-2-trifluoromethylbenzonitrile] |  |  |  | 50 to 140 | 5 to 70 |
| CN1C(=O)N(c2ccc(C#N)c(C(F)(F)F)c2)C(=O)[C@@]1(C)c1ccc(O)cc1 [Example 155, (R)-4-[3,4-dimethyl-2,5-dioxo-4-(4-hydroxyphenyl)imidazolidin-1-yl]-2-trifluoromethylbenzonitrile] |  |  |  | 50 to 140 | 5 to 70 |
| CC#CCN1C(=O)N(c2ccc(C#N)c(C(F)(F)F)c2)C(=O)C1(C)c1ccc(O)cc1 (centres unmarked) [Example 220, 4-[3-(2-butynyl)-4-(4-hydroxyphenyl)-4-methyl-2,5-dioxoimidazolidin-1-yl]-2-trifluoromethylbenzonitrile] |  |  | 172 | 50 to 140 | 5 to 70 |
